The source of these data is patent US7196198B2, “Benzoic acid derivatives, processes for the preparation thereof and pharmaceutical agents comprising the same as active ingredient” (Ono Pharmaceutical Co., Ltd., priority 2000, dated 2007).

Counter-ions that a name gives are not always drawn.

For experiment [1], the target named is T1, EP4 (Mus musculus, UniProt P32240).
T1 construct: expressed in transfected cells; host or cells: CHO cells (membrane fraction)
Nature of the experiment: Binding assay using cell expressing the prostanoid receptor subtypes ([3H]-PGE2 competition, CHO membrane fraction). The conditions noted are these: membrane fraction of CHO cell expressing mouse EP4, Ki=IC50/(1+([C]/Kd)). Here is the method: (i) Binding Assay Using Cell Expressing The Prostanoid Receptor Subtypes
The preparation of membrane fraction was carried out according to the method of Sugimoto et al [J. Biol. Chem. 267, 6463–6466 (1992)], using CHO cell expressing prostanoid receptor subtype (mouse EP1, EP2, EP3, EP4 and human IP).
The standard assay mixture containing membrane fraction (0.5 mg/mL), [^3H]-PGE2 in a final volume of 200 μl was incubated for 1 hour at room temperature. The reaction was terminated by addition of 3 mL of ice-cold buffer. The mixture was rapidly filtered through a glass filter (GF/B) under reduced pressure. The radioactivity associated with the filter was measured by liquid scintillation counter.
Kd and Bmax values were determined from Scatchard plots [Ann. N.Y. Acad. Sci. 51, 660(1949)]. Non-specific binding was calculated as the amount bound in the presence of an excess (2.5 μM) of unlabeled PGE2. In the experiment for competition of specific [^3H]-PGE2 binding by the compounds of the present invention, [^3H]-PGE2 was added at a concentration of […] and the compound of the present invention was added at various concentrations. The following buffer was used in all reactions. • Buffer: 10 mM potassium phosphate (pH 6.0), 1 mM EDTA, 10 mM MgCl2, 0.1 M NaCl. • The dissociation constant (Ki) (μM) of each compound was calculated by the following equation. Ki=IC50/(1+([C]/Kd))

Experiment [2] addresses T1, EP4. Nature of the experiment: EP4 antagonizing activity assay using the cell expressing the prostanoid receptor subtypes (cAMP production in CHO cells). The format is cell-based. Particulars: inhibition of cAMP production with 100 nM PGE2 as agonist; CHO cell expressing receptor subtype. As for the experimental part:
(ii) EP4 Antagonizing Activity Assay Using the Cell Expressing the Prostanoid Receptor Subtypes
The preparation of CHO cell expressing prostanoid receptor subtype was carried out according to the method of Nishigaki et al [FEBS lett., 364, 339–341(1995)]. The cells were cultured in 24-well microplates (10^5 cells/well) for two days before experiments. After washing each well with 500 μL of MEM (minimum essential medium), thereto was added 450 μL of assay medium (MEM containing 1 mmol/L IBMX, 1% BSA), and the mixture was incubated for 10 minutes at 37° C. Then PGE2 alone or a combination with a test compound (50 μL) were added, and the mixture was incubated for 10 minutes at 37° C. And reaction was terminated by addition of ice-cold TCA (10% W/V, 500 μL). This reaction mixture was freezed once (−80° C.) and thawed, and cells were harvested using a scraper. After centrifugation (13,000 r.p.m., for 3 minutes), cAMP content was measured using cAMP assay kit. That is, the supernatant (125 μL) was diluted with 500 μL of [^125I]-cAMP assay kit buffer (Amersham), and mixed with 0.5 mol/L tri-n-octylamine/chloroform solution (1 mL) was mixed. After removal of TCA from chloroform layer, cAMP content in the aqueous layer was quantified according to the method of kit manuals. […]
On the technique in general: Cyclic AMP is a second messenger, typically raised through Gs and lowered through Gi signalling.

T1 sequence (P32240 whole entry): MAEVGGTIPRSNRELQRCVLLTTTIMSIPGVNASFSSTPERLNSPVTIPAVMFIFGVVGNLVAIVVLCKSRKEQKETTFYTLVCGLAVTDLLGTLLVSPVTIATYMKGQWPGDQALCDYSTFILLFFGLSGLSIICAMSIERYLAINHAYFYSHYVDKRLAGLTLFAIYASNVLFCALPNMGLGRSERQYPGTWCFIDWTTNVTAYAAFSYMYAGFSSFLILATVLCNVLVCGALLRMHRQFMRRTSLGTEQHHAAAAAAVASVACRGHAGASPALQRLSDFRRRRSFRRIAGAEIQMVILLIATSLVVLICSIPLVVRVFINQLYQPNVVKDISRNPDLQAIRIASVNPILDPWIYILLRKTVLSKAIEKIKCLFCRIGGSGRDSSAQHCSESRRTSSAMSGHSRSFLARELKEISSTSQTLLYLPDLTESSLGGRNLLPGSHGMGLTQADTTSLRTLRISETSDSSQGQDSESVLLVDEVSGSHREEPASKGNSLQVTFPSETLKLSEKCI

`CC(C(=O)Nc1ccccc1Cc1ccccc1C(=O)O)c1cccc2ccccc12` (stereo not shown) [Example 2(1), 2-[2-[2-(1-naphthyl)propanoylamino]phenylmethyl]benzoic acid] had a Ki in experiment [1] of 2.7 nM. Besides, in experiment [2], the IC50 turned out to be 10 nM.
In the case of `CC(C(=O)Nc1ccncc1Cc1ccccc1C(=O)O)c1cccc2ccccc12` (stereo not shown) [Example 2(15), 2-[4-[2-(1-naphthyl)propanoylamino]pyridin-3-ylmethyl]benzoic acid monohydrochloride], the affinity in experiment [1] corresponds to a Ki of 6.5 nM.
Molecule `CC(C(=O)Nc1ccccc1Cc1ccccc1C(=O)O)c1ccc(OCc2ccccc2)cc1` (stereo not shown) [Example 4(1), 2-[2-[2-(4-benzyloxyphenyl)propanoylamino]phenylmethyl]benzoic acid] returned an inhibition constant Ki in experiment [1] of 10.5 nM.

A word on the Ki: it is the equilibrium dissociation constant of an inhibitor or competing ligand from its target. Usually IC50 stands for the concentration that gives 50% inhibition.
